The numbers were not newly measured in patent US20140023718A1, “PROSTAGLANDIN-CONTAINING FAT EMULSION” (FUJIFILM Corporation, priority 2011, published 2014), which cites them from elsewhere.

The conditions of this data set: 25° C. water.

With `O=C(O)CC(O)C(=O)O` (centres unmarked) [malic acid], the pKa1 is 3.40 and the pKa2 is listed as 5.13.
Take `O=C(O)CCC(=O)O` [succinic acid]: the pKa1 is 4.00 and the pKa2 was 5.24.
`CCCC(=O)O` [butyric acid]: the pKa is given as 4.63.
